Reference: ChEMBL document CHEMBL1201862, “PubChem BioAssay data set” (2004)
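Exposure lasted 48 hours, with cells grown in 96-well plates and compounds tested at five concentrations. At the GI50, growth is halved.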 The source made the active and inactive calls. Rule as the data show it: active = GI50 up to about 1.1 µM and inactive = higher.

Tests used:
Experiment in all cases: NCI tumour cell line growth inhibition, 48 h
[1] = system: MCF7
[2] = system: SR
[3] = system: NCI/ADR-RES
[4] = system: DU-145
[5] = system: SNB-75
[6] = system: OVCAR-3
[7] = system: SW-620
[8] = system: OVCAR-8
[9] = system: TK-10
[10] = system: MOLT-4
[11] = system: CAKI-1
[12] = system: MDA-MB-435
[13] = system: SF-539
[14] = system: HL-60
[15] = system: EKVX
[16] = system: SN12C
[17] = system: MDA-N
[18] = system: Malme-3M
[19] = system: SK-MEL-28
[20] = system: NCI-H460
[21] = system: A549
[22] = system: M14
[23] = system: HCT-116
[24] = system: RXF 393
[25] = system: UACC-62
[26] = system: COLO 205
[27] = system: SNB-19
[28] = system: CCRF-CEM
[29] = system: HOP-62
[30] = system: PC-3
[31] = system: A498
[32] = system: MDA-MB-231
[33] = system: K562
[34] = system: KM12
[35] = system: HOP-92
[36] = system: SF-295
[37] = system: OVCAR-4
[38] = system: RPMI-8226
[39] = system: 786-0
[40] = system: ACHN
[41] = system: SK-OV-3
[42] = system: IGROV-1
[43] = system: SF-268
[44] = system: UACC-257
[45] = system: Hs-578T
[46] = system: NCI-H23
[47] = system: UO-31
[48] = system: OVCAR-5
[49] = system: NCI-H226
[50] = system: SK-MEL-5
[51] = system: HT-29
[52] = system: LOX IMVI
[53] = system: T47D
[54] = system: SK-MEL-2
[55] = system: U-251
[56] = system: NCI-H522
[57] = system: HCC 2998
[58] = system: HCT-15

## Cc1nnc2n1-c1ccccc1-c1[nH]c3ccccc3c1C2
[1]
  GI50: > 100 µM (inactive)
[2]
  GI50: 22.8 µM (inactive)
[3]
  GI50: 69.8 µM (inactive)
[4]
  GI50: > 100 µM (inactive)
[5]
  GI50: 8.24 µM (inactive)
[6]
  GI50: 76.6 µM (inactive)
[7]
  GI50: > 100 µM (inactive)
[8]
  GI50: 38.1 µM (inactive)
[9]
  GI50: > 100 µM (inactive)
[10]
  GI50: 45 µM (inactive)
[11]
  GI50: 51.1 µM (inactive)
[12]
  GI50: 60.1 µM (inactive)
[13]
  GI50: > 100 µM (inactive)
[14]
  GI50: 21.2 µM (inactive)
[15]
  GI50: > 100 µM (inactive)
[16]
  GI50: > 100 µM (inactive)
[17]
  GI50: 61.1 µM (inactive)
[18]
  GI50: 78.9 µM (inactive)
[19]
  GI50: 73.5 µM (inactive)
[20]
  GI50: 30.7 µM (inactive)
[21]
  GI50: 91 µM (inactive)
[22]
  GI50: 43.1 µM (inactive)
[23]
  GI50: 54.8 µM (inactive)
[24]
  GI50: 44.1 µM (inactive)
[25]
  GI50: 25.1 µM (inactive)
[26]
  GI50: 45 µM (inactive)
[27]
  GI50: > 100 µM (inactive)
[28]
  GI50: 53.8 µM (inactive)
[29]
  GI50: 58.9 µM (inactive)
[30]
  GI50: 46.1 µM (inactive)
[31]
  GI50: 19.2 µM (inactive)
[32]
  GI50: 58.5 µM (inactive)
[33]
  GI50: 24.2 µM (inactive)
[34]
  GI50: 94.4 µM (inactive)
[35]
  GI50: 93.8 µM (inactive)
[36]
  GI50: 56.1 µM (inactive)
[37]
  GI50: 45.2 µM (inactive)
[38]
  GI50: 32.2 µM (inactive)
[39]
  GI50: 83.8 µM (inactive)
[40]
  GI50: 39.9 µM (inactive)
[41]
  GI50: > 100 µM (inactive)
[42]
  GI50: 70 µM (inactive)
[43]
  GI50: > 100 µM (inactive)
[44]
  GI50: 59.8 µM (inactive)
[45]
  GI50: > 100 µM (inactive)
[46]
  GI50: 63.7 µM (inactive)
[47]
  GI50: 28.8 µM (inactive)
[48]
  GI50: > 100 µM (inactive)
[49]
  GI50: > 100 µM (inactive)
[50]
  GI50: 26.2 µM (inactive)
[51]
  GI50: 68.2 µM (inactive)
[52]
  GI50: 89.9 µM (inactive)
[53]
  GI50: > 100 µM (inactive)

## Nc1nc2ccc3ccccc3c2[nH]1
[1]
  GI50: > 10 µM (inactive)
[2]
  GI50: > 10 µM (inactive)
[3]
  GI50: > 10 µM (inactive)
[54]
  GI50: > 10 µM (inactive)
[55]
  GI50: > 10 µM (inactive)
[4]
  GI50: > 10 µM (inactive)
[5]
  GI50: > 10 µM (inactive)
[6]
  GI50: > 10 µM (inactive)
[56]
  GI50: > 10 µM (inactive)
[7]
  GI50: > 10 µM (inactive)
[8]
  GI50: > 10 µM (inactive)
[9]
  GI50: > 10 µM (inactive)
[10]
  GI50: > 10 µM (inactive)
[11]
  GI50: > 10 µM (inactive)
[12]
  GI50: > 10 µM (inactive)
[13]
  GI50: > 10 µM (inactive)
[14]
  GI50: > 10 µM (inactive)
[15]
  GI50: > 10 µM (inactive)
[16]
  GI50: > 10 µM (inactive)
[17]
  GI50: > 10 µM (inactive)
[57]
  GI50: > 10 µM (inactive)
[18]
  GI50: > 10 µM (inactive)
[19]
  GI50: > 10 µM (inactive)
[20]
  GI50: > 10 µM (inactive)
[21]
  GI50: > 10 µM (inactive)
[22]
  GI50: > 10 µM (inactive)
[23]
  GI50: > 10 µM (inactive)
[24]
  GI50: > 10 µM (inactive)
[25]
  GI50: > 10 µM (inactive)
[26]
  GI50: > 10 µM (inactive)
[27]
  GI50: > 10 µM (inactive)
[28]
  GI50: > 10 µM (inactive)
[29]
  GI50: > 10 µM (inactive)
[30]
  GI50: > 10 µM (inactive)
[31]
  GI50: > 10 µM (inactive)
[32]
  GI50: > 10 µM (inactive)
[33]
  GI50: > 10 µM (inactive)
[34]
  GI50: > 10 µM (inactive)
[36]
  GI50: > 10 µM (inactive)
[37]
  GI50: > 10 µM (inactive)
[58]
  GI50: > 10 µM
[38]
  GI50: > 10 µM (inactive)
[40]
  GI50: > 10 µM (inactive)
[41]
  GI50: > 10 µM (inactive)
[42]
  GI50: > 10 µM (inactive)
[43]
  GI50: > 10 µM (inactive)
[45]
  GI50: > 10 µM (inactive)
[46]
  GI50: > 10 µM (inactive)
[47]
  GI50: 5.66 µM (inactive)
[48]
  GI50: > 10 µM (inactive)
[49]
  GI50: 8.51 µM (inactive)
[50]
  GI50: > 10 µM (inactive)
[51]
  GI50: > 10 µM (inactive)
[52]
  GI50: > 10 µM (inactive)
[53]
  GI50: > 10 µM (inactive)

## CC[C@H](C)[C@H]1NC(=O)[C@@H](NC(=O)[C@@H](CC(C)C)N(C)C(=O)C2CCCN2C(=O)[C@H](C)O)[C@@H](C)OC(=O)[C@@H]2Cc3ccccc3CN2C(=O)[C@@H]2CCCN2C(=O)[C@H](CC(C)C)NC(=O)[C@@H](C)C(=O)[C@H](C(C)C)OC(=O)C[C@@H]1O (stereo partly drawn)
[1]
  GI50: 0.0596 µM (active)
[2]
  GI50: 0.0811 µM (active)
[3]
  GI50: > 100 µM (inactive)
[54]
  GI50: 0.205 µM (active)
[55]
  GI50: 0.0586 µM (active)
[4]
  GI50: 0.341 µM (active)
[5]
  GI50: 0.121 µM (active)
[6]
  GI50: 0.286 µM (active)
[56]
  GI50: 0.443 µM (active)
[7]
  GI50: 0.555 µM (active)
[8]
  GI50: 1.1 µM (active)
[9]
  GI50: 2.62 µM (inactive)
[10]
  GI50: 0.17 µM (active)
[11]
  GI50: 4.92 µM (inactive)
[12]
  GI50: 0.374 µM (active)
[13]
  GI50: 0.267 µM (active)
[15]
  GI50: 2.52 µM (inactive)
[16]
  GI50: 0.271 µM (active)
[17]
  GI50: 0.388 µM (active)
[57]
  GI50: 0.154 µM (active)
[18]
  GI50: 0.34 µM (active)
[19]
  GI50: 0.231 µM (active)
[20]
  GI50: 0.171 µM (active)
[21]
  GI50: 0.434 µM (active)
[22]
  GI50: 1.17 µM (inactive)
[23]
  GI50: 0.144 µM (active)
[24]
  GI50: 0.802 µM (active)
[25]
  GI50: 0.106 µM (active)
[26]
  GI50: 0.269 µM (active)
[27]
  GI50: 0.207 µM (active)
[28]
  GI50: 0.106 µM (active)
[29]
  GI50: 0.385 µM (active)
[30]
  GI50: 0.317 µM (active)
[31]
  GI50: 0.871 µM (active)
[32]
  GI50: 1.04 µM (active)
[33]
  GI50: 0.175 µM (active)
[34]
  GI50: 0.104 µM (active)
[35]
  GI50: 1.58 µM (inactive)
[36]
  GI50: 1.06 µM (active)
[37]
  GI50: 0.641 µM (active)
[58]
  GI50: > 47.2 µM
[38]
  GI50: 0.399 µM (active)
[39]
  GI50: 0.368 µM (active)
[40]
  GI50: 1.55 µM (inactive)
[41]
  GI50: 0.547 µM (active)
[42]
  GI50: 0.476 µM (active)
[43]
  GI50: 0.327 µM (active)
[44]
  GI50: 0.351 µM (active)
[45]
  GI50: 0.314 µM (active)
[48]
  GI50: 0.822 µM (active)
[49]
  GI50: 1.6 µM (inactive)
[50]
  GI50: 0.164 µM (active)
[51]
  GI50: 0.258 µM (active)
[52]
  GI50: 0.361 µM (active)
[53]
  GI50: 0.323 µM (active)
